Patent US20030104974A1, “Dual inhibitorsof PDE 7 and PDE 4” (priority 2001, published 2003)
Where two headings read alike, the source gives them in different places.

What was measured:
PDE4 = test: SPA assay, PDE4 (rat kidney); assay type: biochemical
Protocol: (§1) Inhibition of PDE activity in Hut78 cell lysate was determined using an SPA specific for cAMP (Amersham Pharmacia Biotech, Buckinghamshire, UK) according to the manufacturers instructions with minor modifications. Enzyme assays were performed at room temperature in the presence of 50 mM Tris HCl, pH7.5, containing 8.3 mM MgCl2, 1.7 mM EGTA and 0.5 mg/mL BSA. Each assay was performed in a 100 μL reaction volume in 96 well microtitre plates containing the above buffer, 0.3 ul of Hut78 cell lysate treated with 2 uM Zardaverine to inhibit PDE3 and PDE4, 0.05 uCi of [5′,8-3H] Adenosine 3′,5′-cyclic phosphate as an ammonium salt for 20 min. The reaction was terminated by the addition of 50 μl PDE SPA beads (1 mg) water with 10 mM cold cAMP (Sigma, St. Louis Mo.). The reaction mix was allowed to settle for 20 minutes before counting in a Top Count-NXT scintillation counter (Packard BioScience, Meriden, Conn.). […] The following PDEs/activators and enzyme sources were used: PDE1, bovine (Sigma St Louis), calmodulin; PDE2, rat kidney, cGMP; PDE3, human platelet; PDE4, rat kidney; PDE5, human platelet, and PDE6, bovine retina.
(§2) The LPS human PBMC TNF production assay was performed as described above.

PDE5 = biological target: T1, PDE5 (Homo sapiens, UniProt O76074); test: SPA assay, PDE5 (human platelet, 3H-cyclic GMP substrate); assay type: biochemical
T1 construct: PDE5, human platelet; from tissue; host or cells: human platelet
Protocol: as §1, §2

PDE6 = biological target: T2, PDE6 (Bos taurus, UniProt P11541+P23439); test: SPA assay, PDE6 (bovine retina, 3H-cyclic GMP substrate); assay type: biochemical
T2 construct: PDE6, bovine retina; from tissue; host or cells: bovine retina
T2 sequence (P11541 2-856 limits assumed): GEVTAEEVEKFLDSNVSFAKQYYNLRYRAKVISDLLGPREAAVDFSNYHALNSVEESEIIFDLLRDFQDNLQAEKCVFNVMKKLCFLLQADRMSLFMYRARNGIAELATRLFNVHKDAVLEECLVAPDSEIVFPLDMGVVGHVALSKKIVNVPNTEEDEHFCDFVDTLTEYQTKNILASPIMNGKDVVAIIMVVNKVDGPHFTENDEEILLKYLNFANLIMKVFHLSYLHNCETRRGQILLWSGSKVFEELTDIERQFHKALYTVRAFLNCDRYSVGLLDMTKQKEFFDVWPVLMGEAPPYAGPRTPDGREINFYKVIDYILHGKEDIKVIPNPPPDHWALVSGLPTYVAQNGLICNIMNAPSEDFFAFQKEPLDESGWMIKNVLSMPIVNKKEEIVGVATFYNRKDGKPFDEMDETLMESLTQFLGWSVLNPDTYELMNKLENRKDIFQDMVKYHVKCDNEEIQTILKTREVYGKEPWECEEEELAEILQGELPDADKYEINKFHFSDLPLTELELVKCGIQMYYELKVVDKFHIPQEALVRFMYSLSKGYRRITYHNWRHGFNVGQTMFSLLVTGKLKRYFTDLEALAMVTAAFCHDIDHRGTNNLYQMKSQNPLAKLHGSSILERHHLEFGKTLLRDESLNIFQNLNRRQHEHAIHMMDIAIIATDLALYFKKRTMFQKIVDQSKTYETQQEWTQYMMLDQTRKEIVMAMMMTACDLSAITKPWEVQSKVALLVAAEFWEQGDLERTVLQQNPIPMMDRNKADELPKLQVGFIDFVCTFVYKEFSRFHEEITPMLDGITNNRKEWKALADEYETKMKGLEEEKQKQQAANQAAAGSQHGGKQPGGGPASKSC
T2 sequence (P23439 2-850 limits assumed): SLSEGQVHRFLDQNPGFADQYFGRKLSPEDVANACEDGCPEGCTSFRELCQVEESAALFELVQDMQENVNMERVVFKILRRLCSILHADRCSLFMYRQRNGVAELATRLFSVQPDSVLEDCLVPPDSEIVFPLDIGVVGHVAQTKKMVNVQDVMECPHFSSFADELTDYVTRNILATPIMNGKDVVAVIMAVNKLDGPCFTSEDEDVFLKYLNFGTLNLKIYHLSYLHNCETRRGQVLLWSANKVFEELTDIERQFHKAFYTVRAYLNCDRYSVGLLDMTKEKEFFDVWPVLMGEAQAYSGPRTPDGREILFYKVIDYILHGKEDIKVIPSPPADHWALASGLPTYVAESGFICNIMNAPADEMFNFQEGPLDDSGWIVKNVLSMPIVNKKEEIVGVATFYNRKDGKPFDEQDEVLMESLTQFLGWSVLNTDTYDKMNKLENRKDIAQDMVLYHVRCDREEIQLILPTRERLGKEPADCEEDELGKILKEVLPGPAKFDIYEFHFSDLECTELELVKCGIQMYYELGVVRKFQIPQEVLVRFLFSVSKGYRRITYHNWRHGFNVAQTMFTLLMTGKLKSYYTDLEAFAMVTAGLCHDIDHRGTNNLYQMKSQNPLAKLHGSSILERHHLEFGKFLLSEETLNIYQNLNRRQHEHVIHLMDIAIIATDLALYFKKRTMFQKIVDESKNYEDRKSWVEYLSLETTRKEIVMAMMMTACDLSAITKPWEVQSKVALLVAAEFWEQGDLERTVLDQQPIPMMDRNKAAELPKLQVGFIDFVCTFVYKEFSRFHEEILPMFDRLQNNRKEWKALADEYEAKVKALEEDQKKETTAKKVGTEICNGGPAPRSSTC
Protocol: as §1, §2

PDE1 = test: SPA assay, PDE1 (3H-cyclic GMP substrate, calmodulin); assay type: biochemical; settings: bovine PDE1, calmodulin
Protocol: as §1, §2

[1] = system: LPS human PBMC TNF production; test: LPS human PBMC TNF production assay; assay type: cell-based; settings: LPS 6.25 ng/ml, 4 h
Protocol: Peripheral blood mononuclear cells (PBMC) were isolated from whole blood by density gradient centrifugation over Lymphoprep, 1.077. Cells were plated into 96 well U-bottom plates at 2.5×10^5 cells/well in 10% FBS RPMI 1640 (Life Technologies/Gibco-BRL) containing 10 ug/ml anti-CD3 (G19-4, Bristol-Myers Squibb P.R.I., Princeton, N.J.) and lug/ml anti-CD28 (9.3, Bristol-Myers Squibb P.R.I.) in the presence and absence of inhibitors. DMSO (used as a solvent for inhibitors) was added to the medium at 0.1% final concentration. The total volume per well was 200 μL. Cells were incubated at 37 C. 5% CO2 for 3 days, at which time 0.5 μCi of ^3H-thymidine was added to each well. Six hours following the addition of ^3H-thmidine, the plates were harvested onto filter plates, 30 ul EcoLite scintillant (ICN, Costa Mesa, Calif.) was added per well, and plates read on a Top Count-NXT scintillation counter.
The ability of compounds to inhibit the production and secretion of TNFα from leukocytes was performed using either PBMC (obtained as described above) or the THP-1 cell line as a source of monocytes. Compounds were diluted in RPMI 1640 supplemented with 10% FBS and DMSO at a final concentration of 0.2%. […] Soluble TNFα was detected by ELISA developed by R&D Systems (Minneapolis, Minn.) according to the manufacturers instructions. […]

PDE3 = biological target: T3, PDE3 (Homo sapiens, UniProt Q14432); test: SPA assay, PDE3 (human platelet); assay type: biochemical
T3 construct: PDE3, human platelet; from tissue; host or cells: human platelet
T3 sequence (Q14432 whole entry): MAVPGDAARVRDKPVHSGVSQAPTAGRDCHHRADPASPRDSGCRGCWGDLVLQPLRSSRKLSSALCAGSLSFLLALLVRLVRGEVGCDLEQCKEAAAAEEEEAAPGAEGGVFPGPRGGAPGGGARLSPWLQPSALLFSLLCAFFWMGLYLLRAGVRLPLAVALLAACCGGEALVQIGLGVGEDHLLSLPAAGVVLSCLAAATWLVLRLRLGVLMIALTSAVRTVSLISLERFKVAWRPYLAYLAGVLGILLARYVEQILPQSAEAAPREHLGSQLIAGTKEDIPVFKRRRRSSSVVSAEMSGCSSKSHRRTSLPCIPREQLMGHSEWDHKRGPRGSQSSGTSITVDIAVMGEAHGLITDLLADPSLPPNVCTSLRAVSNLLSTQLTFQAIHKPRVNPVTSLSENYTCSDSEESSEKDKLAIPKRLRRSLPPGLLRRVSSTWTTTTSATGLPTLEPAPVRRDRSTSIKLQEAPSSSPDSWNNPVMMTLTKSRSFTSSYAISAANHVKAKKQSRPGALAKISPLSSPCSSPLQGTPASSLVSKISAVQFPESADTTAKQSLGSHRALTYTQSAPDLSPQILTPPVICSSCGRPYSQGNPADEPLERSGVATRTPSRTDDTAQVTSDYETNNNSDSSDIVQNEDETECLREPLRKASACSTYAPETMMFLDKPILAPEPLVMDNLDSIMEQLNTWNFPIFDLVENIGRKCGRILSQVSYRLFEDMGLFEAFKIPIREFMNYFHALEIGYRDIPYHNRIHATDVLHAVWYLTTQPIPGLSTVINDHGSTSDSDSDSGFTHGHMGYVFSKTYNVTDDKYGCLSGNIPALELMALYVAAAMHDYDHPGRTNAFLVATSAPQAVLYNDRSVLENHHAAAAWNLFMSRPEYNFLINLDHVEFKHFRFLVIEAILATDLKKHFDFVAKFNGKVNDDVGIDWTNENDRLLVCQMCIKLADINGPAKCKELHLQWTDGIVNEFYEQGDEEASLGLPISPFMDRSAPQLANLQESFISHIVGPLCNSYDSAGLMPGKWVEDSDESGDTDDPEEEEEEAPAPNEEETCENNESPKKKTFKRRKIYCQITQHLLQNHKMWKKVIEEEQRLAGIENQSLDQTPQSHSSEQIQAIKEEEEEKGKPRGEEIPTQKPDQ
Protocol: as §1, §2

PDE7 = biological target: T4, PDE7 (Homo sapiens, UniProt Q13946); test: SPA assay for cAMP, PDE7 in Hut78 cell lysate treated with Zardaverine; assay type: biochemical; settings: for IC50: Hut78 cell lysate, SPA
T4 construct: endogenous in cells; host or cells: Hut78 cells (crude lysate)
T4 sequence (Q13946 whole entry): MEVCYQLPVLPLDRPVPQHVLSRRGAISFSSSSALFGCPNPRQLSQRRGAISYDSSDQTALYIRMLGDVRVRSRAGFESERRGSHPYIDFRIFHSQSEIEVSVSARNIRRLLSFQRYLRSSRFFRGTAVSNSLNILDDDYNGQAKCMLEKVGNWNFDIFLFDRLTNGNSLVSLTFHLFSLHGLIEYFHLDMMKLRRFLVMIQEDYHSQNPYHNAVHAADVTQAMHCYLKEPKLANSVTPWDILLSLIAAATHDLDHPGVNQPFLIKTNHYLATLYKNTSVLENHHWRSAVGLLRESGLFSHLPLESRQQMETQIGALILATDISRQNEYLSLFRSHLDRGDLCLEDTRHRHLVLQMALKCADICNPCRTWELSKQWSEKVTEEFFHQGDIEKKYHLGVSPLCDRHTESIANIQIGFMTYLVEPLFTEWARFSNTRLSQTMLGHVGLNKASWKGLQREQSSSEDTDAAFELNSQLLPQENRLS
Protocol: Hut78 cells were grown in 10% FCS in Iscoves Modified Dulbecco's Medium (Gibco BRL-Life Technologies, Grand Island, N.Y.) with antibiotics. Cells were centrifuged and resuspended in four volumes of [40 mM Tris (pH 7.5)/50 μM EDTA/200 μM PMSF with a cocktail of Protease inhibitors (Boehringher Mannheim, Indianapolis, Ind.)] at 4 C. Cells were homogenized using a Virtis homogenizer, and the lysate was centrifuged twice for 15 min at 15,000×g. Glycerol was added to a final volume of 50% for storage at −20C.
as §1, §2

[2] = system: Lipopolysaccharide (LPS) induced tumor necrosis factor (TNF) production; test: LPS induced TNF production in mice (Examples I-1, I-2); assay type: in vivo; settings: for inhibited TNF production: Example I-2; for reduction in serum TNF: Example I-1
Protocol: Mice were exposed to lipopolysaccharide to induce production of tumor necrosis factor as described by Cornwell, et. al. (Lipopolysaccharide, but not lethal infection, releases tumor necrosis factor in mice. Cornwell, R. D.; Golenbock, D. T.; Proctor, R. A. Adv.; Exp. Med. Biol. (1990), 256(Endotoxin), 585-8.). The mice were divided in to groups of eight animals each. All animals received an intraperitoneal (IP) injection of 50 μg/kg of LPS. The vehicle control group of animals received 0.2 mL of a vehicle of tween80 (5%), 95% ethanol (5%) and water 90%, sixty minutes prior to administration of LPS, and an IP injection of 0.2 mL of water fifteen minutes prior to administration of LPS. […] A group of mice (F1 group) were administered 0.2 mL of a vehicle of tween80 (5%), 95% ethanol (5%) and water 90%, sixty minutes prior to administration of LPS, and Example F1, at a dose of 7.5 mg/kg, IP in water, fifteen minutes prior to administration of LPS. […] A group of mice (dexamethasone group) were administered a 5 mg/kg dose of dexamethasone in a vehicle of tween80 (5%), 95% ethanol (5%) and water 90%, sixty minutes prior to administration of LPS, and 0.2 mL of water IP, fifteen minutes prior to administration of LPS.
Cilomilast inhibited TNF production by 56% (p<0.05). […] Finally the dexamethasone control inhibited TNF production 94%.

[3] = Pharmacokinetic data in mice for Example F1 and rolipram; assay type: in vivo; settings: for Cmax: mouse, plasma
[4] = mice, F1 30 mg/kg IP, rolipram 10 mg orally

SMILES | IC50 (PDE4) [µM] | IC50 (PDE5) [µM] | IC50 (PDE6) [µM] | IC50 (PDE1) [µM] | IC50 [1] [µM] | IC50 (PDE3) [µM] | IC50 (PDE7) [µM] | also measured
CCOC(=O)c1sc(Nc2nc(N3CCC(O)CC3)cc(N3CCC(O)CC3)n2)nc1C [Example F2, 2-[4,6-Bis-(4-hydroxy-piperidin-1-yl)-pyrimidin-2-ylamino]-4-methyl-thiazole-5-carboxylic Acid Ethyl Ester] | 3.2 | 0.72 | 0.73 | 4.8 | > 25 | 20 | 0.06 | inhibited TNF production ([2]; F2 30 mg/kg, not statistically significant): 33.7%
COc1ccc(C2CNC(=O)C2)cc1OC1CCCC1 (centres unmarked) [rolipram, reference compound] |  |  |  |  |  |  | > 10 | Cmax of Rolipram reduced by a factor by co-administration with F1 [3, 4]: 3 factor; Cmax ([3]; po, 10 mg): 290 nM; reduction in serum TNF ([2]; rolipram 5 mg/kg oral 60 min prior to LPS 50 μg/kg IP, vs vehicle): 54%
C[C@@H]1C[C@H]2[C@@H]3CCC4=CC(=O)C=C[C@]4(C)[C@@]3(F)[C@@H](O)C[C@]2(C)[C@@]1(O)C(=O)CO [dexamethasone] |  |  |  |  |  |  |  | reduction in serum TNF ([2]; dexamethasone 5 mg/kg 60 min prior to LPS): 93%; inhibited TNF production ([2]; dexamethasone control): 94%
COc1ccc([C@]2(C#N)CC[C@@H](C(=O)O)CC2)cc1OC1CCCC1 [cilomilast, reference compound] | 0.03 | > 10 |  | 3.4 | 0.43 | > 10 | > 50 | inhibited TNF production ([2]; cilomilast 1 mg/kg): 56%
CCOC(=O)c1sc(Nc2nc(NCc3cc(OC)c(OC)c(OC)c3)cc(N3CCC(N(C)C)CC3)n2)nc1C [Example F1, 2-[[4-[4-(Dimethylamino)-1-piperidinyl]-6-[[(3,4,5-trimethoxphenyl)methyl]amino]-2-pyrimidinyl]amino]-4-methyl-5-thiazolecarboxylic Acid, Ethyl Ester] | 3 | 2.8 | 7.5 | 4.3 |  | 32 | 0.03 | plasma concentration of F1 compared with its PDE4 IC50 ([3]; mice, F1 30 mg/kg): does not reach the PDE4 IC50; change of Cmax of F1 by co-administration of rolipram [3, 4]: essentially unchanged; Cmax ([3]; mice, F1 30 mg/kg IP alone, read-out: Cmax, F1): 2200 nM; selective for PDE7 over PDE4 (PDE7; ratio of PDE4 and PDE7 IC50): 100 fold; reduction in serum TNF ([2]; F1 7.5 mg/kg IP 15 min prior to LPS 50 μg/kg IP, vs vehicle): 52%
